Laboratory results from the supplement of paper PMC5908809.

Tests used:
[1] = tested on: normal NK cells expanded with K562-aAPC; experiment: percent inhibition of viability; higher = more inhibition; details: 72 h, IL-2 2.5 ng/mL
Protocol: (§1)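 Drug sensitivity and resistance testing on K562-aAPC-expanded normal NK cells: 5 concentrations (10-fold steps over a 10,000-fold range), 72 h at 37 °C, viability by CellTiter-Glo normalised to DMSO and benzethonium chloride controls; DSS from the fitted curve.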

[2] = tested on: normal NK cells expanded with K562-aAPC; experiment: drug sensitivity score (DSS) (DSS units); higher = more sensitive; extreme values may be limits of the assay; details: 72 h; IL-2 2.5 ng/mL
Protocol: as §1

NK-YS (IL-2 2.5 ng/mL) [3] = experiment: as above; details: 72 h
KAI3 (IL-2 2.5 ng/mL) [4] = experiment: as above; details: 72 h
NK-92 (IL-2 2.5 ng/mL) [5] = experiment: as above; details: 72 h
NKL (IL-2 2.5 ng/mL) [6] = experiment: as above; details: 72 h
KHYG-1 (IL-2 2.5 ng/mL) [7] = experiment: as above; details: 72 h
[8] = tested on: normal primary NK cells, pool 3 (3 donors) (IL-2 2.5 ng/mL); experiment: as above; details: 72 h
DERL-7 (IL-2 2.5 ng/mL) [9] = experiment: as above; details: 72 h
SNK-6 (IL-2 2.5 ng/mL) [10] = experiment: as above; details: 72 h
[11] = tested on: normal primary NK cells, pool 1 (3 donors) (IL-2 2.5 ng/mL); experiment: as above; details: 72 h
YT (IL-2 2.5 ng/mL) [12] = experiment: as above; details: 72 h
[13] = tested on: normal primary NK cells, pool 2 (3 donors) (IL-2 2.5 ng/mL); experiment: as above; details: 72 h
IMC-1 (IL-2 20 ng/mL) [14] = experiment: as above; details: 72 h
[15] = tested on: normal primary NK cells, pool 1 (3 donors), resting (IL-2 0 ng/mL); experiment: as above; details: 72 h
NK-YS (IL-2 2.5 ng/mL) [16] = experiment: percent inhibition of viability; higher = more inhibition; details: 72 h
KAI3 (IL-2 2.5 ng/mL) [17] = experiment: as above; details: 72 h
NK-92 (IL-2 2.5 ng/mL) [18] = experiment: as above; details: 72 h
NKL (IL-2 2.5 ng/mL) [19] = experiment: as above; details: 72 h
KHYG-1 (IL-2 2.5 ng/mL) [20] = experiment: as above; details: 72 h
[21] = tested on: normal primary NK cells, pool 3 (3 donors) (IL-2 2.5 ng/mL); experiment: as above; details: 72 h
DERL-7 (IL-2 2.5 ng/mL) [22] = experiment: as above; details: 72 h
SNK-6 (IL-2 2.5 ng/mL) [23] = experiment: as above; details: 72 h
[24] = tested on: normal primary NK cells, pool 1 (3 donors) (IL-2 2.5 ng/mL); experiment: as above; details: 72 h
YT (IL-2 2.5 ng/mL) [25] = experiment: as above; details: 72 h
[26] = tested on: normal primary NK cells, pool 2 (3 donors) (IL-2 2.5 ng/mL); experiment: as above; details: 72 h
IMC-1 (IL-2 20 ng/mL) [27] = experiment: as above; details: 72 h
[28] = tested on: normal primary NK cells, pool 1 (3 donors), resting (IL-2 0 ng/mL); experiment: as above; details: 72 h

Cc1c(CN2CCN(C(=O)[C@H](C)O)CC2)sc2c(N3CCOCC3)nc(-c3cnc(N)nc3)nc12 [Apitolisib] (max concentration tested 10000 nM)
percent inhibition of viability [%]
Details | 1 nM | 10 nM | 100 nM | 1000 nM | 10000 nM
DERL-7 (IL-2 2.5 ng/mL) [22] | 3.04 | 1.57 | 29.2 | 78.4 | 92.4
IMC-1 (IL-2 20 ng/mL) [27] | -4.85 | -5.41 | -12.6 | -55.2 | 8.81
KAI3 (IL-2 2.5 ng/mL) [17] | 0.17 | -2.02 | 17.9 | 39.6 | 65.3
KHYG-1 (IL-2 2.5 ng/mL) [20] | -2.58 | -0.95 | -1.53 | 18 | 76.4
NK-92 (IL-2 2.5 ng/mL) [18] | 16 | 7.33 | 22.5 | 45.1 | 57.8
NK-YS (IL-2 2.5 ng/mL) [16] | -2.41 | 1.63 | 8.5 | 47.2 | 73.8
NKL (IL-2 2.5 ng/mL) [19] | -12 | -7.01 | 2.26 | 53.8 | 65.7
SNK-6 (IL-2 2.5 ng/mL) [23] | 13.8 | 9.78 | 15.2 | 21.3 | 45.5
YT (IL-2 2.5 ng/mL) [25] | 0.06 | 0.22 | 4.58 | 47.5 | 71
[1] | 2.46 | -0.12 | 17.4 | 39.8 | 85.8
[21] | -10.7 | -12.9 | -5.47 | 6.17 | 59.6
[24] | -11.8 | -13.1 | 4.5 | 40.1 | 75
[26] | -13.9 | -6.6 | 0.47 | 22.1 | 66.1
[28] | -0.63 | -14.4 | -6.11 | 24.3 | 34.8

Details | drug sensitivity score
DERL-7 (IL-2 2.5 ng/mL) [9] | 18
IMC-1 (IL-2 20 ng/mL) [14] | 0
KAI3 (IL-2 2.5 ng/mL) [4] | 9.5
KHYG-1 (IL-2 2.5 ng/mL) [7] | 7.06
NK-92 (IL-2 2.5 ng/mL) [5] | 11.3
NK-YS (IL-2 2.5 ng/mL) [3] | 10.2
NKL (IL-2 2.5 ng/mL) [6] | 10.3
SNK-6 (IL-2 2.5 ng/mL) [10] | 6.63
YT (IL-2 2.5 ng/mL) [12] | 9.84
[2] | 10
[8] | 4.24
[11] | 8.91
[13] | 6.81
[15] | 4.44

CCN(CC)CCNC(=O)c1c(C)[nH]c(/C=C2\C(=O)Nc3ccc(F)cc32)c1C [Sunitinib] (max concentration tested 1000 nM)
percent inhibition of viability [%]
Details | 0.1 nM | 1 nM | 10 nM | 100 nM | 1000 nM
DERL-7 (IL-2 2.5 ng/mL) [22] | -3.26 | -7.9 | -4.27 | 2.22 | 8.72
IMC-1 (IL-2 20 ng/mL) [27] | -2.84 | -1.04 | -2.36 | -9.74 | -11.7
KAI3 (IL-2 2.5 ng/mL) [17] | -6.44 | -3.5 | -1.64 | -2.65 | 13.1
KHYG-1 (IL-2 2.5 ng/mL) [20] | -2.13 | -0.89 | -1.78 | -2.5 | -1.47
NK-92 (IL-2 2.5 ng/mL) [18] | -1.8 | -5.15 | -7.66 | -13.8 | -16.3
NK-YS (IL-2 2.5 ng/mL) [16] | -7.84 | -1.57 | -0.53 | -5.09 | 20
NKL (IL-2 2.5 ng/mL) [19] | -10.3 | -18.8 | -13.7 | -21.1 | -19
SNK-6 (IL-2 2.5 ng/mL) [23] | 5.7 | 4.75 | 3.71 | -18.1 | -44.5
YT (IL-2 2.5 ng/mL) [25] | -1.95 | 0.38 | 0.07 | -2.92 | -1.42
[1] | -1.15 | -8.6 | -7.99 | -3.78 | 8.28
[21] | -5.22 | -2.41 | -6.25 | -3.39 | 0.3
[24] | -9.12 | -5.49 | 0.84 | 2.57 | 11.7
[26] | -6.76 | -0.63 | -6.25 | -4.61 | 11.7
[28] | -1.26 | -12.4 | 6.63 | 10.2 | 8.42

Details | drug sensitivity score
DERL-7 (IL-2 2.5 ng/mL) [9] | 0
IMC-1 (IL-2 20 ng/mL) [14] | 0
KAI3 (IL-2 2.5 ng/mL) [4] | 0.06
KHYG-1 (IL-2 2.5 ng/mL) [7] | 0
NK-92 (IL-2 2.5 ng/mL) [5] | 0
NK-YS (IL-2 2.5 ng/mL) [3] | 0.4
NKL (IL-2 2.5 ng/mL) [6] | 0
SNK-6 (IL-2 2.5 ng/mL) [10] | 0
YT (IL-2 2.5 ng/mL) [12] | 0
[2] | 0
[8] | 0
[11] | 0.13
[13] | 0
[15] | 0.08

O=C(Nc1cc(Cl)cc2c1[nH]c1cnccc12)c1cccnc1 [PS-1145] (max concentration tested 25000 nM)
percent inhibition of viability [%]
Details | 2.5 nM | 25 nM | 250 nM | 2500 nM | 25000 nM
DERL-7 (IL-2 2.5 ng/mL) [22] | -3.2 | -13 | 1.95 | -4.1 | -8.03
IMC-1 (IL-2 20 ng/mL) [27] | -6.22 | -1.55 | 3.4 | 7.36 | 16
KAI3 (IL-2 2.5 ng/mL) [17] | 5.94 | 6.21 | 4.4 | 48.5 | 75
KHYG-1 (IL-2 2.5 ng/mL) [20] | 5.69 | 5.58 | 12.9 | 7.66 | 16.4
NK-92 (IL-2 2.5 ng/mL) [18] | -0.17 | -20.2 | -5.95 | 4.6 | 23.6
NK-YS (IL-2 2.5 ng/mL) [16] | 0.26 | 0.9 | 2.11 | 7.41 | 11.3
NKL (IL-2 2.5 ng/mL) [19] | 12.7 | 11.1 | 10.4 | 9.5 | 20.8
SNK-6 (IL-2 2.5 ng/mL) [23] | -11.2 | 3.19 | -6.13 | 14.1 | 16.6
YT (IL-2 2.5 ng/mL) [25] | 3.94 | 1.19 | 1.07 | 4.91 | 13.9
[1] | 2.02 | 0.77 | -1.48 | -6.16 | 6.75
[21] | -2.28 | -6.49 | 7.93 | 14.6 | 10.4
[24] | 5.83 | -8.31 | 15.4 | 7.93 | 11.5
[26] | -19.7 | -10.7 | 3.18 | 6.82 | 10.1
[28] | -26.1 | -30.6 | 0.68 | -5.12 | -6.42

Details | drug sensitivity score
DERL-7 (IL-2 2.5 ng/mL) [9] | 0
IMC-1 (IL-2 20 ng/mL) [14] | 0.51
KAI3 (IL-2 2.5 ng/mL) [4] | 10.1
KHYG-1 (IL-2 2.5 ng/mL) [7] | 0.87
NK-92 (IL-2 2.5 ng/mL) [5] | 1.52
NK-YS (IL-2 2.5 ng/mL) [3] | 0.04
NKL (IL-2 2.5 ng/mL) [6] | 0
SNK-6 (IL-2 2.5 ng/mL) [10] | 1.45
YT (IL-2 2.5 ng/mL) [12] | 0.38
[2] | 0
[8] | 1.86
[11] | 0.64
[13] | 0
[15] | 0
